Source: paper PMC9719791 (Science translational medicine, 2021)

Molecular target: SUMO activating enzyme (SAE) (Homo sapiens, UniProt Q9UBE0+Q9UBT2)
Experiment: E1-E2 HTRF transthiolation assay with recombinantly purified SAE
Assay type: biochemical

SUMO activating enzyme (SAE), sequence (Q9UBT2 whole entry): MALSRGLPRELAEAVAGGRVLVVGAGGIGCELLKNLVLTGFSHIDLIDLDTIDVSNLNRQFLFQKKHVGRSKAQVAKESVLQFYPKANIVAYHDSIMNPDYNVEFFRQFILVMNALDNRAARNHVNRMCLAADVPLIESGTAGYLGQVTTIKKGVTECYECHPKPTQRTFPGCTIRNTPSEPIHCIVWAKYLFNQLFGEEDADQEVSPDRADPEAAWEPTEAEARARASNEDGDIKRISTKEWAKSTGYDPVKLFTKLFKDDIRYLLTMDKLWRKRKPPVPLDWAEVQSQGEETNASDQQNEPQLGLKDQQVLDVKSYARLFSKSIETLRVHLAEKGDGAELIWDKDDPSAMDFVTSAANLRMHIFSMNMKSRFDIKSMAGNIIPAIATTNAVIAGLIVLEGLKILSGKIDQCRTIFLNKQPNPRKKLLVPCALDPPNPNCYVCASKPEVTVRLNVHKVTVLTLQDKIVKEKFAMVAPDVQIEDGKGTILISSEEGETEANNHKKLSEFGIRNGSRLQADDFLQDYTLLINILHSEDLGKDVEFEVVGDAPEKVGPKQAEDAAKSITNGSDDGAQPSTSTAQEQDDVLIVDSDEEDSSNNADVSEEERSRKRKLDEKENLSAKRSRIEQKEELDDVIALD
SUMO activating enzyme (SAE), sequence (Q9UBE0 whole entry): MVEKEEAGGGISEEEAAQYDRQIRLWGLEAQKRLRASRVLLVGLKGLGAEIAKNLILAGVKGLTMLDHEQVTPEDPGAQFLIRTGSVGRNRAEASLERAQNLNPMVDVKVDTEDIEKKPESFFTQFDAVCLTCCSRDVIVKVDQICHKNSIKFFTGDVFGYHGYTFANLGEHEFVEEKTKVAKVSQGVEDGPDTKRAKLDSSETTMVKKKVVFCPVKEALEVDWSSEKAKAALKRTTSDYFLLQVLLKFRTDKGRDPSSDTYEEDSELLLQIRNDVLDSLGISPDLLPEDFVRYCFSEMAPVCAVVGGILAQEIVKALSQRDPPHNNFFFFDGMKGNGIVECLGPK
SUMO activating enzyme (SAE), sequence (P63279 2-158 partner): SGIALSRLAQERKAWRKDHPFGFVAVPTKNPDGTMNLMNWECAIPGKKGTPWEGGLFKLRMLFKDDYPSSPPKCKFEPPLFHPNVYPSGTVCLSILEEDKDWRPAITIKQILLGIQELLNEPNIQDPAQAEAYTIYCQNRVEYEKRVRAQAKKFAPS

Question: For Cc1sc(C(=O)c2cncnc2N[C@@H]2C[C@H](COS(N)(=O)=O)[C@@H](O)C2)cc1[C@@H]1NCCc2ccc(Cl)cc21 [TAK-981, ((1R,2S,4R)-4-((5-(4-((1R)-7-chloro-1,2,3,4-tetrahydroisoquinolin-1-yl)-5-methylthiophene-2-carbonyl)pyrimidin-4-yl)amino)-2-hydroxycyclopentyl)methyl sulfamate], which IC50 is on record?
Answer: 0.6 nM
